In the supplement of paper PMC10307832:

Columns and labels:
Assay in all cases: relative viability (nuclei count vs DMSO), 5 days (fraction); higher = more cells survive
BEN = test system: BEN
Summary of the method: (§1)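 One day after seeding in 1536-well plates, lung cancer cell lines were dosed by pin tool. Dosing was either single-drug or a fixed anchor-drug dose plus five library-drug doses (not always all listed) in √10 steps. After 5 days, nuclei were stained in one fix-and-stain step and counted on 4× images, and relative viability is the nuclei count of treated wells over that of vehicle wells, given as the median of duplicate plates.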

EPLC-272H = test system: EPLC-272H
Summary of the method: as §1

HCC-827 = test system: HCC-827
Summary of the method: as §1

HOP-62 = test system: HOP-62
Summary of the method: as §1

LU99A = test system: LU99A
Summary of the method: as §1

NCI-H1355 = test system: NCI-H1355
Summary of the method: as §1

NCI-H1666 = test system: NCI-H1666
Summary of the method: as §1

NCI-H1792 = test system: NCI-H1792
Summary of the method: as §1

NCI-H1975 = test system: NCI-H1975
Summary of the method: as §1

NCI-H2170 = test system: NCI-H2170
Summary of the method: as §1

NCI-H23 = test system: NCI-H23
Summary of the method: as §1

NCI-H2405 = test system: NCI-H2405
Summary of the method: as §1

NCI-H3122 = test system: NCI-H3122
Summary of the method: as §1

NCI-H322M = test system: NCI-H322M
Summary of the method: as §1

NCI-H358 = test system: NCI-H358
Summary of the method: as §1

NCI-H520 = test system: NCI-H520
Summary of the method: as §1

NCI-H596 = test system: NCI-H596
Summary of the method: as §1

NCI-H647 = test system: NCI-H647
Summary of the method: as §1

NCI-H838 = test system: NCI-H838
Summary of the method: as §1

PC-14 = test system: PC-14
Summary of the method: as §1

UMC-11 = test system: UMC-11
Summary of the method: as §1

Cc1cnc(-c2cnc(NCCNc3ccc(C#N)cn3)nc2-c2ccc(Cl)cc2Cl)[nH]1 + Nc1nc2[nH]cc(CCc3ccc(C(=O)N[C@@H](CCC(=O)O)C(=O)O)cc3)c2c(=O)[nH]1 [Pemetrexed] (partner 0.2 µM)
relative viability (BEN; first compound 0.08 µM): 0.787 | relative viability (BEN; first compound 0.253 µM): 0.751 | relative viability (BEN; first compound 0.8 µM): 0.771 | relative viability (BEN; first compound 2.53 µM): 0.802 | relative viability (EPLC-272H; first compound 0.08 µM): 0.388 | relative viability (EPLC-272H; first compound 0.253 µM): 0.293 | relative viability (EPLC-272H; first compound 0.8 µM): 0.344 | relative viability (EPLC-272H; first compound 2.53 µM): 0.276 | relative viability (HCC-827; first compound 0.08 µM): 0.27 | relative viability (HCC-827; first compound 0.253 µM): 0.267 | relative viability (HCC-827; first compound 0.8 µM): 0.245 | relative viability (HCC-827; first compound 2.53 µM): 0.269 | relative viability (HOP-62; first compound 0.08 µM): 0.26 | relative viability (HOP-62; first compound 0.253 µM): 0.339 | relative viability (HOP-62; first compound 0.8 µM): 0.312 | relative viability (HOP-62; first compound 2.53 µM): 0.236 | relative viability (LU99A; first compound 0.08 µM): 0.177 | relative viability (LU99A; first compound 0.253 µM): 0.201 | relative viability (LU99A; first compound 0.8 µM): 0.191 | relative viability (LU99A; first compound 2.53 µM): 0.198 | relative viability (NCI-H1355; first compound 0.08 µM): 1.06 | relative viability (NCI-H1355; first compound 0.253 µM): 0.907 | relative viability (NCI-H1355; first compound 0.8 µM): 0.991 | relative viability (NCI-H1355; first compound 2.53 µM): 0.915 | relative viability (NCI-H1666; first compound 0.08 µM): 0.91 | relative viability (NCI-H1666; first compound 0.253 µM): 0.824 | relative viability (NCI-H1666; first compound 0.8 µM): 0.843 | relative viability (NCI-H1666; first compound 2.53 µM): 0.747 | relative viability (NCI-H1792; first compound 0.08 µM): 0.946 | relative viability (NCI-H1792; first compound 0.253 µM): 0.728 | relative viability (NCI-H1792; first compound 0.8 µM): 0.775 | relative viability (NCI-H1792; first compound 2.53 µM): 0.724 | relative viability (NCI-H1975; first compound 0.08 µM): 0.289 | relative viability (NCI-H1975; first compound 0.253 µM): 0.285 | relative viability (NCI-H1975; first compound 0.8 µM): 0.287 | relative viability (NCI-H1975; first compound 2.53 µM): 0.242 | relative viability (NCI-H2170; first compound 0.08 µM): 0.253 | relative viability (NCI-H2170; first compound 2.53 µM): 0.25 | relative viability (NCI-H23; first compound 0.08 µM): 0.667 | relative viability (NCI-H23; first compound 0.253 µM): 0.634 | relative viability (NCI-H23; first compound 0.8 µM): 0.486 | relative viability (NCI-H23; first compound 2.53 µM): 0.438 | relative viability (NCI-H2405; first compound 0.08 µM): 1.09 | relative viability (NCI-H2405; first compound 0.253 µM): 1.06 | relative viability (NCI-H2405; first compound 0.8 µM): 1.04 | relative viability (NCI-H2405; first compound 2.53 µM): 0.468 | relative viability (NCI-H3122; first compound 0.08 µM): 0.201 | relative viability (NCI-H3122; first compound 0.8 µM): 0.183 | relative viability (NCI-H3122; first compound 2.53 µM): 0.174 | relative viability (NCI-H322M; first compound 0.08 µM): 0.603 | relative viability (NCI-H322M; first compound 0.253 µM): 0.584 | relative viability (NCI-H322M; first compound 0.8 µM): 0.548 | relative viability (NCI-H322M; first compound 2.53 µM): 0.562 | relative viability (NCI-H358; first compound 0.08 µM): 0.168 | relative viability (NCI-H358; first compound 0.253 µM): 0.182 | relative viability (NCI-H358; first compound 0.8 µM): 0.184 | relative viability (NCI-H358; first compound 2.53 µM): 0.16 | relative viability (NCI-H520; first compound 0.08 µM): 0.729 | relative viability (NCI-H520; first compound 0.253 µM): 0.727 | relative viability (NCI-H520; first compound 0.8 µM): 0.74 | relative viability (NCI-H520; first compound 2.53 µM): 0.492 | relative viability (NCI-H596; first compound 0.08 µM): 0.531 | relative viability (NCI-H596; first compound 0.253 µM): 0.485 | relative viability (NCI-H596; first compound 0.8 µM): 0.49 | relative viability (NCI-H596; first compound 2.53 µM): 0.53 | relative viability (NCI-H647; first compound 0.08 µM): 0.18 | relative viability (NCI-H647; first compound 0.253 µM): 0.148 | relative viability (NCI-H647; first compound 0.8 µM): 0.145 | relative viability (NCI-H647; first compound 2.53 µM): 0.114 | relative viability (NCI-H838; first compound 0.08 µM): 0.249 | relative viability (NCI-H838; first compound 0.253 µM): 0.247 | relative viability (NCI-H838; first compound 0.8 µM): 0.236 | relative viability (NCI-H838; first compound 2.53 µM): 0.243 | relative viability (PC-14; first compound 0.08 µM): 0.122 | relative viability (PC-14; first compound 0.253 µM): 0.127 | relative viability (PC-14; first compound 0.8 µM): 0.129 | relative viability (PC-14; first compound 2.53 µM): 0.152 | relative viability (UMC-11; first compound 0.08 µM): 0.867 | relative viability (UMC-11; first compound 0.253 µM): 0.772 | relative viability (UMC-11; first compound 0.8 µM): 0.822 | relative viability (UMC-11; first compound 2.53 µM): 0.735
